Where a name gives a salt, the structure may show the parent alone.
Legend:
[1] = Test of Hypoxia-Inhibiting Effect (survival time under nitrogen gas); type: in vivo, ICR mice; settings: 100 mg/kg oral
Experimental: In this test, groups (9 to 10 mice each) of ICR mice were employed. The compound to be tested was suspended in a 0.5% aqueous methyl cellulose solution and was orally administered. 60 Minutes after the administration,each mouse was placed in a transparent container (volume 500m μ) having an exhaust hole and N, gas was supplied to the container at a rate of 5μ/min. The time (survival time in sec.) ,elapsed from the initiation of the nitrogen gas supply until the cessation of breathing of each mouse was determined. As the compounds to be tested, there was used (+)-3,4-dihydro-2-(5-methoxy-2- (3-(N-methyl-N-[2-[(3,4]propoxy]phenyl]-4-methyl-3-oxo-2H-1,4-benzothiazine fumarate (hereinafter referred to as "Compound A") which is a representative compound of the present invention. The results obtained are listed in the following Table 1.

[2] = system: cerebral ischemia / energy metabolic substances in the brain; assay: Test of Cerebral Energy Metabolism (bilateral common carotid artery ligation, SHR); type: in vivo, male SHR's (rat); settings: for Hippocampus E.C. (energy charge): **: P < 0.01 vs. Pathema Control (0.628 ± 0.026); for Cerebral Cortex E.C. (energy charge): **: P < 0.01 vs. Pathema Control (0.631 ± 0.0243); for Striatum E.C. (energy charge): **: P < 0.01 vs. Pathema Control (0.679 ± 0.032)
Experimental: 24-Week-old male SHR's were fixed on the back thereof under with 1.5% halothane anesthetic (70% N,O, 30% O2) and the neck thereof was subjected to a median incision. The cerebral ischemia was caused by immediately ligating bilateral common carotid artery with a silk fiber just before the recovery from the anesthetic state. 3.5 Hours after the ligation, the animals were sacrificed by irradiating them with microwaves (5 KW, 1.5 second). The brain tissues were collected and divided into cerebral cortex, hippocampus and striatum. The brain tissues were homogenized in a 0.6N aqueous perchloric acid solution and centrifuged at 3,000 rpm for 20 minutes. The resulting supernatant was used as the sample for detecting the energy metabolic substances. In the measurement, ATP-Uv test (available from Sigma Co., Ltd.) was used as ATP and lactate-UV test (available from Boeringer Mannheim Yamanouchi Co., Ltd.) was used as lactate. The detection of ADP and AMP was performed according to the method of Bergmeyer (Klin. Chem. Klin. Biochem., 1975, 13, p. 507). The energy charge (hereinafter referred to as "E.C.") which served as an indication of the degree of energy sufficiency due to high energy phosphoric acid of adenine nucleotide was calculated from the following relation according to the method of Atkinson (J. Biol. Chem., 1967, 242, p. 3329):
E.C.=(ATP+1/2ADP)/(ATP+ADP+AMP)
In the test, the compound to be tested was suspended in a 0.5% aqueous solution of methyl cellulose and was administered, through an oral route, to the animals to be tested 30 minutes before the ligation of the both common carotid arteries.

[3] = Water Maze-Learning Test after cerebral ischemia; type: in vivo, male SHR's (rat); settings: for Swimming Time, 3rd Session: **: P < 0.01 vs. Pathema Control (114.9 ± 16.93); for Swimming Time, 2nd Session: **: P < 0.01 vs. Pathema Control (130.0 ± 17.13); for Swimming Time, 1st Session: **: P < 0.01 vs. Pathema Control (167.5 ± 9.59)
Experimental: (§1) 25-Week-old male SHR's were fixed on the back thereof under anesthetization with 1.5% halothane anesthetic (70% N,O, 30% O2) and the neck thereof was subjected to a median incision. The cerebral ischemia was caused by immediately ligating the both common carotid arteries with,a silk fiber after a vinyl tube was attached to the artery and just before the recovery from the anesthetic state. 3.5 Hours after the ligation, the silk fiber was cut to again initiate the blood circulation. In the test, the compound to be tested was suspended in a 0.5% aqueous solution of methyl cellulose and was initially administered, through oral route, to the animals to be tested 30 minutes before the ligation of the common artery and thereafter it was continuously administered every day over 16 days through oral route provided that the compound was not administered during the behavioral pharmacologic tests of the animals and was administered after completion of the tests.
This water maze-learning test was initiated on 7th day after the cerebral ischemia condition was formed. A cylindrical water tank having a diameter of 1.2 m was filled with black water and the temperature thereof was maintained at 20±1° C. A platform which was submerged in the water to a depth of 2 cm and could not be externally seen through the water (hereinafter referred to as "platform") was placed at the central point existing between the center of the water tank and the wall thereof.
The water maze-learning test was performed once a day (one session) which was continuously performed over three days (three sessions). In the first session (1st day), the animal was allowed to freely swim in the water tank which was free of platforms, then a platform was positioned in the tank and the animal was allowed to learn the presence of the platform of refuge by placing the animal thereon for 30 seconds. The animal was released through four predetermined points on the wall of the water tank over four times and the total time (swimming time (sec)) required until the animal got on the platform over four trials was determined. After the four trials, the animal was again allowed to stand on the platform for […] and thus the first session was completed. In this respect, the maximum total time required over four trials was determined to be 180 seconds. […] The 2nd and 3rd sessions were performed under the same conditions used in the first session except that the test animal was not allowed to freely swim in the water tank prior to the initiation of the test. The spatial positions of the water tank and the platform in the laboratory were not changed at all during the water maze-learning test term.

[4] = Trial Passive Avoidance Training after cerebral ischemia; type: in vivo, male SHR's (rat); settings: for Reaction Latency: cut-off 300 s, **: P < 0.01 vs. Pathema Control (146.7 ± 30.42)
Experimental: as §1
As a testing apparatus, there was used a training box comprising a bright room whose floor was formed from grid, a dark room capable of applying footshock through the floor made of grid and a port opening equipped with a guillotine door disposed at the boundary of these rooms through which the animal could freely move between these two rooms. First, as an acquired trial, the rat was put in the bright room for 30 seconds while the guillotine door was closed, then the guillotine door was opened and the time required for the rat to enter into the dark room through the guillotine door was determined. […] After 24 hours, the rat was again put in the bright room, 30 seconds thereafter the guillotine door was opened and the time required for the animal to confirm the entrance and to enter into the dark room (the reaction latency) was determined. […]

[5] = system: Choline acetyltransferase (ChAT); assay: Activity of Choline acetyltransferase (ChAT) in the striatum after cerebral ischemia; type: in vivo, male SHR's (rat)
Experimental: as §1
After completion of the learning test, the rat was sacrificed by decapitation and the activity of ChAT which had been believed to be involved in the memory function of animals was determined. The brain tissues were homogenized in 0.05% Triton X-100 containing-phosphate buffer solution (pH 7.4) and the resulting supernatant was used as a sample for determining the ChAT activity. The activity of ChAT was determined according to the method of Fonnum (J. Neurochem., 1975,24, p. 407).

Acute toxicity, oral = settings: rat, in vivo, rats
Excerpt: The acute toxicity thereof was investigated by orally administering the compounds of Formula (I) to rats and they were confirmed to be highly safe.
Compound A was orally administered to rats to determine the acute toxicity thereof.

## COc1ccc(OCCCN(C)CCOc2ccc3c(c2)OCO3)c(C2Sc3ccccc3N(C)C2=O)c1 (single isomer, unassigned; (+)) [Compound A, (+)-3,4-dihydro-2-(5-methoxy-2-(3-(N-methyl-N-[2-[(3,4]propoxy]phenyl]-4-methyl-3-oxo-2H-1,4-benzothiazine fumarate]
[1]
  effect on survival time under low oxygen supply (in words): significant effect of extending survival time
[1]; 60 min before N2, average ± standard error, **: P < 0.01 vs. Control (25.8 ± 0.61)
  Survival Time: 35.7 ± 1.28 s
[2]; 10 mg/kg oral
  Hippocampus E.C. (energy charge): 0.706 ± 0.025
  Cerebral Cortex E.C. (energy charge): 0.705 ± 0.0237
  Striatum E.C. (energy charge): 0.703 ± 0.025
[2]; 10 mg/kg oral, cerebrum cortex and hippocampus
  reduction in the E.C. due to the ischemia (in words): significantly improved
[2]; 25 mg/kg oral
  changes in the ATP and the lactate due to the ischemia (in words): significantly inhibited
  effect on the ratio lactate/pyruvate (in words): substantially improved
[2]; 25 mg/kg oral, 30 min before 3.5 h ligation, average ± standard error, **: P < 0.01 vs. Pathema Control (10.0 ± 1.03)
  ATP: 16.9 ± 0.87 n mole/mg Protein
[2]; 25 mg/kg oral, 30 min before 3.5 h ligation, average ± standard error, **: P < 0.01 vs. Pathema Control (40.3 ± 6.78)
  Lactate/Pyruvate: 19.1 ± 2.71
[2]; 25 mg/kg oral, 30 min before 3.5 h ligation, average ± standard error, **: P < 0.01 vs. Pathema Control (128.6 ± 15.84)
  Lactate: 62.3 ± 10.20 n mole/mg Protein
[2]; 30 mg/kg oral
  Hippocampus E.C. (energy charge): 0.762 ± 0.022
  Cerebral Cortex E.C. (energy charge): 0.764 ± 0.0078
  Striatum E.C. (energy charge): 0.768 ± 0.0063
[2]; 30 mg/kg oral, cerebral cortex, hippocampus and striatum
  reduction in the E.C. due to the ischemia (in words): completely inhibited
[3]; 10 mg/kg oral
  Swimming Time, 3rd Session: 40.9 ± 11.82 s
  Swimming Time, 2nd Session: 61.4 ± 15.06 s
  Swimming Time, 1st Session: 105.8 ± 16.50 s
[3]; 30 mg/kg oral
  Swimming Time, 3rd Session: 34.5 ± 3.60 s
  Swimming Time, 2nd Session: 59.6 ± 9.60 s
  Swimming Time, 1st Session: 97.2 ± 18.85 s
[3]; vs. pathema control group
  time required to reach the base (in words): significantly shorter
[4]; 10 mg/kg oral
  Reaction Latency: 271.1 ± 19.21 s
[4]; 30 mg/kg oral
  Reaction Latency: 280.8 ± 19.25 s
[4]; vs. pathema control group
  average reaction latency (in words): significantly longer
[5]; 10 mg/kg oral, *: P < 0.05 vs. Pathema Control (3.43 ± 0.097)
  ChAT activity in the striatum: 3.84 ± 0.102 n mol/mg Protein
[5]; 30 mg/kg oral, **: P < 0.01 vs. Pathema Control (3.43 ± 0.097)
  ChAT activity in the striatum: 3.94 ± 0.201 n mol/mg Protein
[5]; rat, in vivo
  lowering of the activity of ChAT in the striatum due to the cerebral ischemia (in words): inhibited
Acute toxicity, oral
  LD50: 293 mg/kg

Reference: US5182276A, “Nootropic agent” (Santen Pharmaceutical Co., Ltd., priority 1989, dated 1993)
